Experiment [1] has as its system HCT116 MTAP null cells. Nature of the experiment: HCT116 MTAP null cell line proliferation / cell viability (CellTiter-Glo, 6 days). Type of experiment: cell-based. The settings on record: for IC50: HCT116 MTAP null cells, 6 days treatment, CellTiter-Glo cell viability, read-out: HCT-116 MTAP null IC50; for relative potency of the enantiomers (measured by IC50 in HCT116 MTAP null cell viability assay): comparison of the two enantiomers separated by SFC, used to assign (S)/(R). The gist of the method:
(§1)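 Isogenic HCT116 parent and MTAP-knockout cells in RPMI 1640 + 10% FBS, plated overnight, then exposed to compound for 6 days (37 °C, 5% CO2). Viability by CellTiter-Glo luminescence. Dilutions: 8–9 points from 1 or 10 μM (1:3), or 22 points from 10 or 50 μM (1:2); IC50 by 4-parameter or Hill −1 fit.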
(In ATP-based viability assays light output follows the ATP content of the culture.)

The subject of experiment [2] is HCT116 WT cells. Nature of the experiment: HCT116 WT (parent) cell line proliferation / cell viability (CellTiter-Glo, 6 days). Type of experiment: cell-based. The settings on record: 6 days treatment. Put shortly:
as §1

The term IC50 denotes the concentration that inhibits the measured activity by half.

Read-outs that look alike come from different tables or passages of the source.

`CN(C(=O)c1cc2c(cc1Cl)nc(N)c1c2cnn1C)C1CCc2nc(C(F)(F)F)ccc21` (racemic) [Example 485, 4-amino-7-chloro-N,3-dimethyl-N-((5R)-2-(trifluoromethyl)-6,7-dihydro-5H-cyclopenta[b]pyridin-5-yl)-3H-pyrazolo[3,4-c]quinoline-8-carboxamide and 4-amino-7-chloro-N,3-dimethyl-N-((5S)-2-(trifluoromethyl)-6,7-dihydro-5H-cyclopenta[b]pyridin-5-yl)-3H-pyrazolo[3,4-c]quinoline-8-carboxamide]: the IC50 in experiment [1] (144 h) stood at 125 nM; in experiment [2] (Homo sapiens, HCT-116, 144 h) it was 11700 nM.

As for `CN(C(=O)c1ccc2nc(N)c3c(c2c1)COC3)C1COc2cc(C3=CCN(C(=O)OC(C)(C)C)CC3)ccc21` (racemic) [Example 614, 2-methyl-2-propanyl 4-((3R)-3-(((4-amino-1,3-dihydrofuro[3,4-c]quinolin-8-yl)carbonyl)(methyl)amino)-2,3-dihydro-1-benzofuran-6-yl)-3,6-dihydro-1(2H)-pyridinecarboxylate and 2-methyl-2-propanyl 4-((3S)-3-(((4-amino-1,3-dihydrofuro[3,4-c]quinolin-8-yl)carbonyl)(methyl)amino)-2,3-dihydro-1-benzofuran-6-yl)-3,6-dihydro-1(2H)-pyridinecarboxylate], the half-maximal inhibitory concentration (IC50) in experiment [1] (144 h) was 127 nM; in experiment [2] (Homo sapiens, HCT-116, 144 h) it was 1360 nM.

As for `CN(C(=O)c1ccc2nc(N)c3cnn(C)c3c2c1)C1CCc2ccccc21` (racemic) [Example 681, 4-amino-N-((1R)-2,3-dihydro-1H-inden-1-yl)-N,1-dimethyl-1H-pyrazolo[4,3-c]quinoline-8-carboxamide and 4-amino-N-((1S)-2,3-dihydro-1H-inden-1-yl)-N,1-dimethyl-1H-pyrazolo[4,3-c]quinoline-8-carboxamide], the half-inhibitory concentration (IC50) stood at 530 nM in experiment [1] (144 h) and 9330 nM in experiment [2] (Homo sapiens, HCT-116, 144 h).

As for `Cc1ccc2c(n1)CCC2N(C)C(=O)c1ccc2nc(N)c3cnn(C)c3c2c1` (racemic) [Example 682, 4-amino-N,1-dimethyl-N-((5R)-2-methyl-6,7-dihydro-5H-cyclopenta[b]pyridin-5-yl)-1H-pyrazolo[4,3-c]quinoline-8-carboxamide and 4-amino-N,1-dimethyl-N-((5S)-2-methyl-6,7-dihydro-5H-cyclopenta[b]pyridin-5-yl)-1H-pyrazolo[4,3-c]quinoline-8-carboxamide], the IC50 is 297 nM in experiment [1] (144 h) and 21000 nM in experiment [2] (Homo sapiens, HCT-116, 144 h).

Regarding `CN(C(=O)c1ccc2nc(N)c3c(c2c1)COC3)[C@@H]1COc2cc(C(F)(F)F)ccc21` (single isomer, unassigned) [Example 317], the IC50 was found to be 24 nM in experiment [1] (144 h) and 1160 nM in experiment [2] (Homo sapiens, HCT-116, 144 h). In experiment [1], the “relative potency of the enantiomers (measured by IC50 in HCT116 MTAP null cell viability assay)” value was “more potent”.

For the compound `CN(C(=O)c1ccc2nc(N)c3c(c2c1)COC3)[C@H]1COc2cc(C(F)(F)F)ccc21` (single isomer, unassigned) [Example 318], the IC50 in experiment [1] (144 h) is 1360 nM; in experiment [2] (Homo sapiens, HCT-116, 144 h), 10000 nM. Also, the “relative potency of the enantiomers (measured by IC50 in HCT116 MTAP null cell viability assay)” value in experiment [1] is “less potent”.

Turning to `CN(C(=O)c1ccc2nc(N)c3c(c2c1)COC3)[C@@H]1COc2cc([N+](=O)[O-])ccc21` (single isomer, unassigned) [Example 319], the IC50 was found to be 48 nM in experiment [1] and 2210 nM in experiment [2] (read-out: HCT-116 WT IC50).

In the case of `CN(C(=O)c1ccc2nc(N)c3c(c2c1)COC3)[C@H]1COc2cc([N+](=O)[O-])ccc21` (single isomer, unassigned) [Example 320], the values for the IC50 in experiment [1] and in experiment [2] (read-out: HCT-116 WT IC50) were 3660 nM and 36400 nM, respectively.

With `[2H]C([2H])([2H])N(C(=O)c1ccc2nc(N)c3c(c2c1)COC3)[C@H]1COc2cc(C(F)(F)F)ccc21` (single isomer, unassigned) [Example 321], the IC50 in experiment [1] (144 h) was found to be 2660 nM; in experiment [2] (Homo sapiens, HCT-116, 144 h), 20100 nM.

On to `[2H]C([2H])([2H])N(C(=O)c1ccc2nc(N)c3c(c2c1)COC3)[C@@H]1COc2cc(C(F)(F)F)ccc21` (single isomer, unassigned) [Example 322], for which the IC50 amounted to 41 nM in experiment [1] (144 h) and 1390 nM in experiment [2] (Homo sapiens, HCT-116, 144 h).

Consider `CN(C(=O)c1ccc2nc(N)c3c(c2c1)COC3)[C@@H]1COc2cc(S(C)(=O)=O)ccc21` (single isomer, unassigned) [Example 323], for which the IC50 came out at 76 nM in experiment [1] (144 h) and 3450 nM in experiment [2] (Homo sapiens, HCT-116, 144 h).

For the compound `CN(C(=O)c1ccc2nc(N)c3c(c2c1)COC3)[C@H]1COc2cc(S(C)(=O)=O)ccc21` (single isomer, unassigned) [Example 324], the IC50 in experiment [1] (144 h) amounted to 5320 nM; in experiment [2] (Homo sapiens, HCT-116, 144 h), 50000 nM.

Regarding `CN(C(=O)c1ccc2nc(N)c3c(c2c1)COC3)[C@@H]1COc2cc(C(F)(F)F)cc(F)c21` (single isomer, unassigned) [Example 325], the concentration for half-maximal inhibition (IC50) was found to be 68 nM in experiment [1] (144 h) and 4160 nM in experiment [2] (Homo sapiens, HCT-116, 144 h).

`CN(C(=O)c1ccc2nc(N)c3c(c2c1)COC3)[C@H]1COc2cc(C(F)(F)F)cc(F)c21` (single isomer, unassigned) [Example 326]: the IC50 in experiment [1] (144 h) was found to be 1780 nM; in experiment [2] (Homo sapiens, HCT-116, 144 h), 20600 nM.

In the case of `CN(C(=O)c1ccc2nc(N)c3c(c2c1)COC3)[C@@H]1COc2cc(S(F)(F)(F)(F)F)ccc21` (single isomer, unassigned) [Example 327], the IC50 was determined as 11 nM in experiment [1] (144 h) and 457 nM in experiment [2] (Homo sapiens, HCT-116, 144 h).

Take `CN(C(=O)c1ccc2nc(N)c3c(c2c1)COC3)[C@H]1COc2cc(S(F)(F)(F)(F)F)ccc21` (single isomer, unassigned) [Example 328]: the IC50 in experiment [1] (144 h) turned out to be 2160 nM; in experiment [2] (Homo sapiens, HCT-116, 144 h), 10100 nM.

As to `CN(C(=O)c1ccc2nc(N)c3c(c2c1)COC3)[C@@H]1COc2cc(Br)ccc21` (single isomer, unassigned) [Example 329], the IC50 in experiment [1] (144 h) is 46 nM; in experiment [2] (Homo sapiens, HCT-116, 144 h), 1820 nM.

Turning to `CN(C(=O)c1ccc2nc(N)c3c(c2c1)COC3)[C@H]1COc2cc(Br)ccc21` (single isomer, unassigned) [Example 330], the 50% inhibitory concentration (IC50) in experiment [1] (144 h) came to 1610 nM; in experiment [2] (Homo sapiens, HCT-116, 144 h), 22900 nM.

As for `C[C@H]1OCc2c1c(N)nc1ccc(C(=O)N(C)[C@@H]3COc4cc(Br)ccc43)cc21` (single isomer, unassigned) [Example 331], the IC50 in experiment [1] (144 h) worked out at 26 nM; in experiment [2] (Homo sapiens, HCT-116, 144 h), 2240 nM.

As for `C[C@H]1OCc2c1c(N)nc1ccc(C(=O)N(C)[C@H]3COc4cc(Br)ccc43)cc21` (single isomer, unassigned) [Example 332], the IC50 amounted to 920 nM in experiment [1] (144 h) and 22300 nM in experiment [2] (Homo sapiens, HCT-116, 144 h).

On to `CN(C(=O)c1cc2c3c(c(N)nc2cn1)COC3)[C@@H]1COc2cc(Cl)ccc21` (single isomer, unassigned) [Example 333], for which the IC50 in experiment [1] (144 h) was determined as 173 nM; in experiment [2] (Homo sapiens, HCT-116, 144 h), 8480 nM.

Consider `CN(C(=O)c1cc2c3c(c(N)nc2cn1)COC3)[C@H]1COc2cc(Cl)ccc21` (single isomer, unassigned) [Example 334], for which the IC50 in experiment [1] (144 h) was determined as 11900 nM; in experiment [2] (Homo sapiens, HCT-116, 144 h) it was 50000 nM.

With `CN(C(=O)c1cc2c3c(c(N)nc2cn1)COC3)[C@@H]1COc2nc(C(F)(F)F)ccc21` (single isomer, unassigned) [Example 335], the IC50 in experiment [1] (144 h) amounted to 272 nM; in experiment [2] (Homo sapiens, HCT-116, 144 h) it was 10900 nM.

Regarding `CN(C(=O)c1cc2c3c(c(N)nc2cn1)COC3)[C@H]1COc2nc(C(F)(F)F)ccc21` (single isomer, unassigned) [Example 336], the IC50 in experiment [1] (144 h) came out at 11900 nM; in experiment [2] (Homo sapiens, HCT-116, 144 h) it was 50000 nM.

Take `[2H]C([2H])([2H])N(C(=O)c1cc2c3c(c(N)nc2cn1)COC3)[C@@H]1COc2cc(C(F)(F)F)ccc21` (single isomer, unassigned) [Example 337]: the IC50 was 41 nM in experiment [1] (144 h) and 2090 nM in experiment [2] (Homo sapiens, HCT-116, 144 h).

On to `[2H]C([2H])([2H])N(C(=O)c1cc2c3c(c(N)nc2cn1)COC3)[C@H]1COc2cc(C(F)(F)F)ccc21` (single isomer, unassigned) [Example 338], for which the half-inhibitory concentration (IC50) in experiment [1] (144 h) stood at 4680 nM; in experiment [2] (Homo sapiens, HCT-116, 144 h), 37500 nM.

`CN(C(=O)c1cc2c3c(c(N)nc2cn1)COC3)[C@@H]1COc2cc(S(C)(=O)=O)ccc21` (single isomer, unassigned) [Example 339]: the IC50 in experiment [1] (144 h) worked out at 237 nM; in experiment [2] (Homo sapiens, HCT-116, 144 h) it was 8780 nM.

Regarding `CN(C(=O)c1cc2c3c(c(N)nc2cn1)COC3)[C@H]1COc2cc(S(C)(=O)=O)ccc21` (single isomer, unassigned) [Example 340], the IC50 in experiment [1] (144 h) is 7320 nM; in experiment [2] (Homo sapiens, HCT-116, 144 h), 50000 nM.

As to `CN(C(=O)c1cc2c3c(c(N)nc2cn1)COC3)[C@@H]1CCc2cc(OC(F)(F)F)ccc21` (single isomer, unassigned) [Example 341], the IC50 amounted to 184 nM in experiment [1] (144 h) and 6240 nM in experiment [2] (Homo sapiens, HCT-116, 144 h).

On to `CN(C(=O)c1cc2c3c(c(N)nc2cn1)COC3)[C@H]1CCc2cc(OC(F)(F)F)ccc21` (single isomer, unassigned) [Example 342], for which the IC50 was 4440 nM in experiment [1] (144 h) and 28000 nM in experiment [2] (Homo sapiens, HCT-116, 144 h).

In the case of `CN(C(=O)c1cc2c3c(c(N)nc2cn1)COC3)[C@@H]1COc2cc(S(F)(F)(F)(F)F)ccc21` (single isomer, unassigned) [Example 343], the IC50 in experiment [1] (144 h) worked out at 19 nM; in experiment [2] (Homo sapiens, HCT-116, 144 h) it was 581 nM.

With `CN(C(=O)c1cc2c3c(c(N)nc2cn1)COC3)[C@H]1COc2cc(S(F)(F)(F)(F)F)ccc21` (single isomer, unassigned) [Example 344], the IC50 in experiment [1] (144 h) is 1060 nM; in experiment [2] (Homo sapiens, HCT-116, 144 h), 19400 nM.

Consider `CN(C(=O)c1cc2c3c(c(N)nc2cn1)COC3)[C@@H]1COc2cc(Br)ccc21` (single isomer, unassigned) [Example 345], for which the IC50 in experiment [1] (144 h) was 91 nM; in experiment [2] (Homo sapiens, HCT-116, 144 h) it was 5440 nM.

In the case of `CN(C(=O)c1cc2c3c(c(N)nc2cn1)COC3)[C@H]1COc2cc(Br)ccc21` (single isomer, unassigned) [Example 346], the IC50 in experiment [1] (144 h) was found to be 6010 nM; in experiment [2] (Homo sapiens, HCT-116, 144 h) it was 37000 nM.

Values taken from patent US20240124442A1, “TRICYCLIC-AMIDO-BICYCLIC PRMT5 INHIBITORS” (AMGEN INC., priority 2021, published 2024).
